Consider 1 compound from patent publication US10478505B2, “Edible oils to enhance delivery of orally administered steroids” (The Regents of the University of California, priority 2011, dated 2019).

Entries after “also recorded” stand apart in the source; their conditions may differ.

In data set [1] the test system is NIH Swiss mice. As to the kind of experiment: PTZ seizure threshold test (intravenous PTZ infusion). The data set is classed as in vivo, mouse. Conditions: for anticonvulsant activity in the PTZ seizure threshold test (seizure threshold): 50 mg/kg (5 mg/ml) and 100 mg/kg (10 mg/ml). As for the experimental part:
(§1) Animals. Male NIH Swiss mice (22-30 g) were housed four per cage. Animals were kept in a vivarium under controlled laboratory conditions (temperature, 22-26° C.; humidity, 40-50%) with an artificial 12-h light/dark cycle and free access to food and water. Animals were allowed to acclimate to the vivarium for ≥5 days. The experiments were performed during the light phase of the light/dark cycle after a ≥30-min period of acclimation to the experimental room. Animals were maintained in facilities fully accredited by the Association for Assessment and Accreditation of Laboratory Animal Care, and all studies were performed under protocols approved by the University of California, Davis, Institutional Animal Care and Use Committee the Animal Care and Use in strict compliance with the Guide for the Care and Use of Laboratory Animals of the National Research Council (National Academy Press, Washington, D.C.; on the internet at nap.edu/readingroom/books/labrats/).
(§2) Test substances and drug administration. Solutions of allopreganolone (SAFC Pharma, Madison, Wis., U.S.A.) were made in miglyol (Neobee M5®, Spectrum Chemicals, Gardena, Calif.), canola oil (ConAgra Foods, Omaha, Nebr.) or peanut oil (Sigma-Aldrich, St. Louis, Mo.). The convulsant agent pentylenetetrazol (PTZ) (Sigma-Aldrich, St. Louis, Mo.) was dissolved in saline immediately before use and administered intravenously (i.v.). For the PTZ threshold test, allopregnanolone solutions were administered orally (p.o.) 30 min, 1 hr and 2 hr before PTZ infusion, in a volume equaling 10 ml/kg. For the 6-Hz seizure test, solutions of allopregnanolone in canola oil were administered in a volume equaling 20 ml/kg.
PTZ seizure threshold test. The threshold for various behavioral seizure stages induced by the GABA receptor antagonist PTZ, was determined by infusing PTZ via a 27-gauge, 0.75-inch “butterfly” needle inserted into the lateral tail vein. The needle was secured to the tail vein by a narrow piece of adhesive tape, and the animal was permitted to move freely inside an inverted plastic container with free aeration from the top. PTZ (10 mg/ml) were infused at a constant rate of 0.5 ml/min using a 1-ml syringe (BD Biosciences, Franklin Lakes, N.J.) mounted on a Harvard infusion pump (Harvard Apparatus Inc., Holliston, Mass.). The syringe was connected to the needle by polyethylene tubing. The infusion was stopped at 3 min or at the onset of tonic extension, whichever occurred first. The thresholds to the onset of tonic hindlimb extension were determined by measuring the latency from the start of convulsant infusion to the onset of all the response. The threshold value (milligrams per kilogram) was determined according to the following formula: (infusion duration [seconds]×infusion rate [milliliters per minute]×convulsant drug concentration [milligrams per milliliter]×1000)/(60 s×weight of mouse [grams]).

The nature of data set [2]: Dissolution of allopregnanolone in oils. The data set is classed as physicochemical. Conditions: three oils: miglyol, canola oil, peanut oil. The method, then:
as §2

Data set [3] can be described thus: Central nervous system effects of allopregnanolone in aqueous hydroxypropyl-beta-cyclodextrin solution. Format: in vivo.
Data set [4] concerns NIH Swiss mice. As to the kind of experiment: Irwin Test behavioral scoring (sedation). Format: in vivo, mouse. The conditions noted are these: 250 mg/kg in canola oil, oral. The method, then:
(§3) NIH Swiss mice were fasted 2 hours prior to experiment participation. Allopregnanolone (ALP) was suspended in vehicle (Tween 80 or canola oil). The time point of maximal effect of ALP was established by gavaging ALP and scoring relevant behavioral parameters outlined in the Irwin Test. See, Sylvain Roux, et al., Current Protocols in Pharmacology, Unit Number: UNIT 10.10, DOI: 10.1002/0471141755.ph1010s27 Online Posting Date: January, 2005. Lethality, convulsion, tremor, Straub, abnormal gait, fear, sedation, reactivity to touch, loss of traction, loss of righting reflex were measured.

Data set [5] has as its system NIH Swiss mice. Kind of data set: PTZ seizure challenge (80 mg/kg PTZ s.c.). Format: in vivo, mouse. As for the experimental part: as §3
Anticonvulsant potential of ALP was determined with PTZ seizure challenge. Oral gavage various ALP concentrations at 50 μl/10 g body weight, t=−45 min or t=−90 min, 80 mg/kg PTZ s.c. at t=0. Observe 30 min for seizure protection (absence of clonic spasms).

The test system of data set [6] is NIH Swiss mice. Kind of data set: 6-Hz seizure test. Format: in vivo, mouse. Conditions: dissolved in canola oil (10 mg/ml), 200 mg/kg, 32 mA for 3 s. The method, then:
as §1
Test substances and drug administration. Solutions of allopreganolone (SAFC Pharma, Madison, Wis., U.S.A.) were made in miglyol (Neobee M5®, Spectrum Chemicals, Gardena, Calif.), canola oil (ConAgra Foods, Omaha, Nebr.) or peanut oil (Sigma-Aldrich, St. Louis, Mo.). […]
6-Hz seizure test. […] Animals were scored as protected or not protected. […]

Where [7] appears, read: oral delivery in canola oil (FIG. 4).

For `CC(=O)[C@H]1CCC2C3CC[C@H]4C[C@H](O)CC[C@]4(C)C3CC[C@@]21C` (stereo in doubt) [allopregnanolone, 1-(3-Hydroxy-10,13-dimethyl-2,3,4,5,6,7,8,9,11,12,14,15,16,17-tetradecahydro-1H-cyclopenta[a]phenanthren-17-yl)ethanone], the “duration of anti-seizure activity” value in the data set with NIH Swiss mice [1] (dissolved in canola oil and peanut oil, oral route) is “long-lasting anti-seizure activity”. Besides, the “anti-seizure activity 120 to 240 min after administration” value in the data set on NIH Swiss mice [1] (dissolved in canola oil or peanut oil, oral, 120 to 240 min after administration, in some cases) is “activity was also present”. Moreover, in the data set with NIH Swiss mice [1] (dissolved in canola oil or peanut oil, oral, 30 min after administration), the “anti-seizure activity 30 min after administration” value is on record as “no or only minimal activity”. Also, in the data set with NIH Swiss mice [1] (dissolved in canola oil or peanut oil, oral, 60 min after administration), the “anti-seizure activity 60 min after administration” value was “strong activity”. For the same compound, the “anticonvulsant activity in the PTZ seizure threshold test (seizure threshold)” value with NIH Swiss mice [1] (dissolved in canola oil, orally administered) is “activity was obtained; also recorded: time-dependent increase in seizure threshold”; with NIH Swiss mice [1] (dissolved in peanut oil, orally administered) it was “activity was obtained; also recorded: time-dependent increase in seizure threshold”. The “anticonvulsant activity in the PTZ seizure threshold test” value with NIH Swiss mice [1] (dissolved in miglyol, orally administered, 100 mg/kg) is “no bioactivity; also recorded: no activity; also recorded: inactive”. Further, in data set [2], the dissolution in oils result is recorded as “readily dissolve”. For the same compound, the entries for the “central nervous system effects” value in data set [3] (high doses administered orally in aqueous solution of hydroxypropyl-beta-cyclodextrin) and in data set [3] (parenteral administration as aqueous solution in hydroxypropyl-beta-cyclodextrin) were “failed to produce central nervous system effects” and “readily causes central nervous system effects”, respectively. Also, the sedation entry in the data set on NIH Swiss mice [4] is listed as “profound sedation”. Moreover, the “anticonvulsant activity in the pentylenetetrazol seizure test” value in the data set with NIH Swiss mice [5] (250 mg/kg in canola oil, oral) was “anticonvulsant activity”. The effective threshold dose in the data set on NIH Swiss mice [5] (setting [7]) was 25 to 75 mg/kg. Moreover, the oral bioavailability result in the data set on NIH Swiss mice [5] (setting [7]) is on record as “markedly enhances”. Besides, the “activity in the 6-Hz seizure test” value with NIH Swiss mice [6] is recorded as “had activity”.
